Several values for one entry are separate records, joined by “and”; a condition that tells them apart may be missing. Equal values may be shown once. Read-outs that look alike come from different tables or passages of the source.
What was measured:
[1] = in absolute ethanol; cited from earlier work
[2] = Fluorimetric titration against Ca2+ (cuvette calibration, Hill fit); assay type: binding; settings: for Kd: 100 mM KCl, 30 mM MOPS, pH 7.2, Hill fit
Protocol: All the solvents were of analytical grade. Chemicals were purchased from commercial sources. ^1H-NMR and ^13C-NMR were measured on a Bruker avance 111-300 MHz spectrometer with chemical shifts reported in ppm (TMS as internal standard). Mass spectra were measured on a Focus GC/DSQ II spectrometer (ThermoScientific) for IC and an API 3000 spectrometer (Applied Biosystems, PE Sciex) for ES. All pH measurements were made with a Mettler Toledo pH-Meter. Fluorescence spectra were recorded on a JASCO FP-8300 spectrofluorometer. Absorption spectra were determined on a VARIAN CARY 300 Bio UV-Visible spectrophotometer. All measurements were done at a set temperature of 25° C. The purity of the dyes were checked by RP-HPLC C-18, eluant: ACN 0.1% TFA/Water 0.1% TFA, method: 20/80 to 100/0 within 20 min then 100/0 for 10 min. detection at λAbs=254 nm. The apparent dissociation constant for calcium (Kd Ca^2+) was measured with a calcium calibration buffer kit from Invitrogen.
A fluorimetric titration of Ia-1 (5 μM) against Ca^2+ in a buffer containing (in mM) 100 KCl and 30 MOPS (pH 7.2) was performed.
A fluorimetric titration of Ia-1-Dextran-6000 conjugate against Ca^2+ in a buffer containing (in mM) 100 KCl and 30 MOPS (pH 7.2) was also conducted.
A fluorimetric titration of Ic-1 and Ic-2 against Ca^2+ in a buffer containing (in mM) 100 KCl and 30 MOPS (pH 7.2) was also conducted. […] The normalised fluorimetric titrations against Ca^2+ of Ia-1, Ic-1 and Ic-2 are represented in FIG. 13.

[3] = Two-photon excitation, fluorescence intensity vs. excitation power; assay type: physicochemical
Protocol: Experiments of two-photon excitation of Ia-1 were conducted. Results are represented on FIG. 8. The power function fit to the data gives a power of 1.92±0.10—within one SD of 2.0, as expected for two-photon excitation evidencing that the measured fluorescence was indeed two-photon excited.

[4] = Determination of fluorescence quantum yield; assay type: physicochemical; settings: rhodamine 101 as reference standard
Protocol: The quantum yields φ of Ia-1 were calculated from the slope of the integrated spectral emission (545 to 700 nm) of Ia-1 in the presence (2 mM) or absence (0 mM, 10 mM EGTA) of Ca^2+ vs. absorbance at 535 nm using rhodamine 101 (φ=1.0 in absolute ethanol) as a reference standard. A solvent correction was applied for the comparison of the fluorescence quantum yields of Ia-1 and rhodamine 101. The quantum yields φ were calculated using the following equation where φ is the quantum yield, s is the value of the observed slope and η is the refractive index of the solvent used.
[formula] • The calculations gave: φCalcium free=0.0089 • φCa2+=0.4541 II.4. Two-Photon Excitation of Compound Ia-1

Purkinje cells = assay: High-speed random access two-photon microscopy with climbing fiber stimulation in cerebellar slices; assay type: cell-based, mice; settings: exponential fit, n=59 spines from 7 cells, 300 μM in pipette
Protocol: For high speed imaging experiments, acute 260 μm thick slices were obtained from the cerebellar vermis of P60 mice and superfused with extracellular saline medium.
Climbing fiber stimulation-evoked transient [Ca^2+] changes in Purkinje cell spines were recorded at high acquisition rate (>2 kHz) by two-photon random-access microscopy, a technique is based on the use of acousto-optic deflectors (AODs), which enable selective scanning of defined points. Purkinje cells were recorded in current-clamp mode, using 2-3MΩ patch pipettes containing 300 μM Ia-1. Recordings were obtained by use of a Multiclamp 700B (Molecular Devices). Following the dialysis of Ia-1, Purkinje cells in slices were imaged under a 25× Leica water immersion objective (HCX IRAPO L 25×/0.95). […] A multifunction card (NI-PCI-MIO 16 E-4) was used to pass all the triggers necessary to synchronize the imaging and the electrophysiology and to control the piezo-electric device that moves the objective in Z. Fluorescence photons were detected by cooled AsGaP photomultipliers (H7421-40, Hamamatsu) discriminated and counted on a fast digital card.
During stimulation of the climbing fiber, fluorescence traces were acquired from multiple spines (range: 4 to 14) at rates over 1 kHz (range 2.2 to 4.8 kHz) (FIGS. 11e and 11f).

[5] = read-out: apparent dissociation constant for Ca2+

SMILES: O=C(O)c1ccccc1C1=c2cc3c4c(c2Oc2c1cc1c5c2CCCN5CCC1)CCC[N+]=4CCC3.[Cl-] [rhodamine 101]
- quantum yield φ of reference standard [1]: 1.0

SMILES: [N-]=[N+]=NCCCCCCOc1cc(OCCOc2ccc(Cl)cc2N(CC(=O)O)CC(=O)O)c(N(CC(=O)O)CC(=O)O)cc1C1=c2cc3c4c(c2Oc2c1cc1c5c2CCCN5CCC1)CCC[N+]=4CCC3 [Ic-1]
- Kd [2, 5]: 1700 nM

SMILES: [N-]=[N+]=NCCCCCCOc1cc(OCCOc2cc(F)ccc2N(CC(=O)O)CC(=O)O)c(N(CC(=O)O)CC(=O)O)cc1C1=c2cc3c4c(c2Oc2c1cc1c5c2CCCN5CCC1)CCC[N+]=4CCC3 [Ic-2]
- Kd [2, 5]: 320 nM

SMILES: [N-]=[N+]=NCCCCCCOc1cc(OCCOc2ccccc2N(CC(=O)O)CC(=O)O)c(N(CC(=O)O)CC(=O)O)cc1C1=c2cc3c4c(c2Oc2c1cc1c5c2CCCN5CCC1)CCC[N+]=4CCC3 [Ia-1]
- power of the power function fit (fluorescence intensity vs. excitation power) [3]: 1.92±0.10
- quantum yield φ, calcium free ([4]; 0 mM Ca2+, 10 mM EGTA): 0.0089
- quantum yield φ, Ca2+ bound (maximum quantum yield) ([4]; 2 mM Ca2+): 0.4541 and 0.45
- Kd ([2]; read-out: apparent dissociation constant (KD) for Ca2+): 258 nM
- increase of fluorescence on binding [Ca2+] ([2]; cuvette calibration experiments): 50 fold
- rise time τ of Ca2+ transients (Purkinje cells): 1.30 ± 0.26 ms
